# What was measured:
# C57BL/6 mice = experiment: Serum IL-4 and IFNγ after a single i.p. injection; format: in vivo
# Protocol: Serum levels of L-4 and IFNγ after a single injection of DB01-1, DB03-4, or DB03-5 are shown. C57BL/6 mice (11-13 weeks old) were given a single i.p. injection of 4.8 nanomoles of the compounds or phosphate buffered saline (PBS)/vehicle control. Serum cytokine levels were measured 2 and 20 hours later by capture ELISA. Bars show means of three mice, with standard deviation. Note that DB01-1 has nearly identical structure to KRN7000 (C24 fatty acid as compared to C26) and has activity that is indistinguishable from KRN7000 in multiple bioassays. We use DB01-1 as a “KRN7000 mimic” because it has been synthesized by our group and is readily available for our studies, and KRN7000 was unavailable due to license restrictions.
# A most intriguing property of KRN7000 analogues is that in some cases they may elicit immune responses that are qualitatively different from those that occur following stimulation with the parent compound. […] This selective activation of IL-4 production by NK T cells was proposed to be the basis for the enhanced therapeutic effects of OCH in the EAE model of central nervous system autoimmune disease. We have observed a similar in vivo effect on the nature of the NK T cell response using several of our ceramide-like glycolipids. […] These responses are similar to those seen for DB01-1, an analogue that is structurally almost identical to KRN7000 (C24 fatty acid instead of C26, otherwise identical) and indistinguishable in terms of its activity in our hands. […] This selective IL-4 induction is virtually identical to that reported for the OCH analogue, and thus illustrates the potential for amino substituted analogues of KRN7000 to induce qualitatively different immunomodulatory effects in vivo. The results reported in FIG. 9 were obtained by measuring serum levels of IL-4 and IFNγ after administering a single injection of […], DB03-4, or DB03-5 to C57BL/6 mice. C57BL/6 mice (11-13 weeks old) were given a single i.p. injection of 4.8 nanomoles of the ceramide-like glycolipids or PBS/vehicle control. Serum cytokine levels were measured 2 and 20 hours later by capture ELISA. Bars show means of three mice, with standard deviation.
# For experiments involving in vivo treatment of mice with the ceramide-like glycolipids, the ceramide-like glycolipids were administered by i.p. or i.v. injection in 0.2 ml PBS+0.025% Tween-20, or in vehicle alone. A typical dose is about 4-5 nmoles per animal per injection. Representative references for administering an α-galactosyl ceramide to mice by i.p., i.v. or p.o. routes are S. Sharif et al., Activation of natural killer T cells by alpha-galactosylceramide treatment prevents the onset and recurrence of autoimmune Type 1 diabetes, Nat. Med., Sep. 7, 2001, (9):1057-62 and K. Miyamoto et al., A synthetic glycolipid prevents autoimmune encephalomyelitis by inducing TH2 bias of natural killer T cells, Nature. Oct. 4, 2001, 413(6855):5314.
# NOD mice = experiment: Prevention of type 1 diabetes in NOD mice; format: in vivo; conditions: i.p. once per week, 200 micrograms/kg; comparator DB01-1 (indicated as KRN7000)
# Protocol: Cohorts of 6-8 female NOD mice were treated with placebo (vehicle) or DB01-1 (indicated as KRN7000), DB03-4 or DB03-5 injections once weekly beginning at 4-5 weeks of age. Treatment was discontinued after 5 injections (DB03-4) or 7 injections (DB03-5). Top graphs show incidence of glycosuria, and bottom graphs show survival in each cohort.
# Given the widely held belief that selective augmentation of IL-4 production can be protective or therapeutic in the setting of many autoimmune diseases, we have initiated studies to examine the efficacy of compounds such as DB03-4 and DB03-5 in diabetes prone NOD mice. […] The results reported in FIG. 10 were obtained by treating three groups, each consisting of 9-12 female NOD mice, starting from age 5 weeks with a ceramide-like glycolipid. The indicated ceramide-like glycolipids (DB03-4, DB03-5, or KRN7000) were injected i.p. once per week in a dose of 200 micrograms/kg. Treatment was discontinued at 11 weeks of age, and the mice were monitored weekly for glucosuria (top) and death (bottom).
# For experiments involving in vivo treatment of mice with the ceramide-like glycolipids, the ceramide-like glycolipids were administered by i.p. or i.v. injection in 0.2 ml PBS+0.025% Tween-20, or in vehicle alone. A typical dose is about 4-5 nmoles per animal per injection. […]
# human NKT cell clones = experiment: Human in vitro NKT cell assay system; format: cell-based; conditions: proliferative responses and cytokine secretion
# From the text: For example, DB03-4 and DB03-5 are active in stimulation of human NKT cell clones in vitro, and elicits proliferative responses and cytokine secretion when evaluated using culture systems previously established in the literature (See, e.g., Spada F M, Sugita M, Watts G F M, Koezuka Y, and Porcelli S A. Low expression but potent antigen presenting function of CD1d on monocyte lineage cells, Eur. J. Immunol., 30:3468-3477 (2000), and Spada F M, Koezuka Y, Porcelli S A, CD1d-restricted recognition of synthetic glycolipid antigens by human NK T cells. J Exp Med; 188:1529-1534 (1998), see also, Lee P T et al., J Clin Invest., 2002 September; 110(6):793-800. […] Acad. Sci. (USA), 102:3383-8 (2005)).
# [1] = system: T cell antigen receptors of human NKT cells; experiment: Glycolipid human CD1d tetramer binding; conditions: normal blood specimens
smiles,measurement,setting,value
CCCCC/C=C\C/C=C\CCCCCCCCCC(=O)N[C@@H](COC1OC(CO)C(O)C(O)C1O)[C@H](O)[C@H](O)CCCCCCCCCCCCCC (some centres unmarked) [DB03-4],serum IFNγ response,C57BL/6 mice; 20 hours after single i.p. injection of 4.8 nanomoles,not seen
same,serum IL-4 response,C57BL/6 mice; two hours after single i.p. injection of 4.8 nanomoles,strong IL-4 response
same,prevention of diabetes in NOD mice compared with KRN7000,NOD mice,superior to KRN7000
same,stimulation of human NKT cell clones,human NKT cell clones,active
same,binding of glycolipid human CD1d tetramers to human NKT cells,[1],bind strongly
